Measured values taken from patent US11578013B2, “Nitrification inhibitors” (Lincoln University, priority 2020, dated 2023).
In brackets after ≈: the same amount, converted by molar mass.

Experiments:
[1] = tested on: nitrification in the soil; experiment: Soil column study at low rates (Study 3-14): nitrate-N; settings: day 60
Protocol: (§1) To determine the effect of treating the soil with 4-Ethynylanisole at low rates, e.g. at 1 kg/ha and 2 kg/ha, soil column studies were conducted. The experiment was conducted in cylindrical PVC containers (Diameter=186 mm, Height=240 mm). The containers were filled with soil to half of the container's height (120 mm), leaving 120 mm headspace. The soil was Templeton sandy loam collected from Lincoln University Research Dairy Farm. It was screened using a 5 mm sieve and air-dried to the required moisture level and packed to bulk density of 1 g/cm3.
(§2) The experiment was conducted under controlled conditions. The temperature of the soil columns were maintained at around 12° C. by using a water bath to control the temperature.
The treatments included Control (Water), Control (animal urine), Control (urine+DMSO), Control (Urine+DCD at 10 kg/ha), Urine+4-Ethynylanisole (at 1 kg/ha) in DMSO, and Urine+4-Ethynylanisole (at 2 kg/ha) in DMSO. Synthetic cow urine was applied at 700 kg N/ha (comprising about 87% urea-N and 13% glycine-N), and 4-Ethynylanisole was applied at 1 or 2 kg/ha equivalent. The treatments were mixed with the soil. Soil moisture was adjusted to 100% field capacity (FC) and maintained between 80 and 100% FC over the duration of the experiment. Soil sampling was conducted on Days 1, 7, 14, 30, and 60. The soil samples were analysed for mineral N.

Escherichia coli = experiment: Antimicrobial susceptibility testing (MIC plate); assay type: cell-based; settings: at concentrations used in soil to inhibit nitrification
Protocol: (§3) To determine if 4-Ethynylanisole specifically targets the ammonium oxidizing bacterium N. europaea we examined the antimicrobial properties of 4-Ethynylanisole against selected bacterial species. Bacteria were routinely grown in Lysogeny broth (LB) (E. coli and B. subtilis), LB-Tween (M. smegmatis), or Rhizobium defined media (G RDM) (M. loti […]). E. coli, B. subtilis, and M. smegmatis were grown overnight (18 hr) at 37° C. with shaking (200 rpm), whereas M. loti […] was grown for 48 hr statically at 28° C. 96-well microtiter plates used for the antimicrobial susceptibility testing were set up as follows; 200 μl of media (or as appropriate) was added to column […]) and 100 μl of media was added to the remaining wells of a polystyrene 96 well plate. 4-Ethynylanisole was added to column 1 at a concentration of 512 μM (or as required) and serially diluted 2-fold (100 μl transfer) into the neighbouring wells, making sure to discard 100 μl from the last well. Thus, resulting in a serial dilution of each compound. […] Plates were incubated at either 37° C., or 28° C. (with shaking as required) for 18-48 hr before determining the MIC.

Mesorhizobium loti R7A = experiment: Antimicrobial susceptibility testing (MIC plate); assay type: cell-based; settings: at concentrations used in soil to inhibit nitrification
Protocol: as §3

Mycobacterium smegmatis = experiment: Antimicrobial susceptibility testing (MIC plate); assay type: cell-based; settings: at concentrations used in soil to inhibit nitrification
Protocol: as §3

Bacillus subtilis = experiment: Antimicrobial susceptibility testing (MIC plate); assay type: cell-based; settings: at concentrations used in soil to inhibit nitrification
Protocol: as §3

Nitrosomonas europaea = experiment: In vitro screening of nitrite production by Nitrosomonas europaea; assay type: cell-based
Protocol: The phenotypic screening involved assessing the nitrification inhibition potency of the selected 5000 compounds against a key ammonia oxidizing bacterium responsible for ammonia oxidation in the soil, Nitrosomonas europaea, in 96-well microtiter plates. N. europaea cells were grown in the presence of an ammonium source, and the potential of putative nitrification inhibitors to inhibit the production of nitrite (NO2) was measured relative to untreated cells. […] Study 1-14

N. europaea cells = experiment: Oxygen consumption rate of N. europaea whole cells (Oroboros oxygraph); assay type: cell-based, Nitrosomonas europaea; settings: 25° C.
Protocol: To begin to understand the mechanism of action of 4-Ethynylanisole the oxygen consumption rate was measured utilising an Oroborus oxygraphy-2k (Oroboros Instruments). Prior to the experiment, N. europaea cells were grown in ATCC 2265 medium for four days. After which time whole cells of N. europaea were washed extensively as previously described and re-suspended in ATCC 2265 wash buffer (no ammonium) to an OD600 of 0.25. Prior to each experiment being initiated by the addition of a metabolizable energy source (ammonium or hydroxyl amine), the oxygen concentration in the assay suspension (2 ml of cells at OD600 of 0.25) was equilibrated for 2-3 min with air until a stable signal was obtained. Under normal experimental conditions this typically yielded an oxygen concentration of approximately 220 μM. After the oxygen concentration had stabilised in the Oroborus oxygraphy-2k reaction cell, rubber stoppers were subsequently inserted to enclose the system. To initiate respiration, ammonium sulphate (12.5 mM) or hydroxyl amine (6.25 mM) were injected directly into washed cell suspension of N. europaea. […] All measurements were made at 25° C. with stirring at 750 rpm and a data recording interval of 1 s^−1.

[2] = tested on: nitrification in the soil; experiment: Soil column study with static gas chambers (Study 2-14): nitrate-N and N2O emissions
Protocol: as §1, with “on nitrification rate” for “at low rates, e.g. at 1 kg/ha”, “nitrous oxide emissions,” for “2 kg/ha,”, “studies with static gas chambers” for “studies”
as §2
The treatments included Control (Water), Control (animal urine), Control (urine+DMSO), Control (urine+DCD at 10 kg/ha) and urine+4-Ethynylanisole (10 kg/ha) in DMSO. Synthetic cow urine was applied at 700 kg N/ha (comprising about 87% urea-N and 13% glycine-N), and 4-Ethynylanisole was applied at 10 kg/ha. There were two sets of cores for each treatment, one set were fitted with static gas chambers with removable lids for nitrous oxide sampling, and the other set used for soil sampling. The urine was sprayed to the surface of the soil simulating urine deposition by a grazing animal; DMSO, or DCD or 4-Ethynylanisole mixed with DMSO was also sprayed onto the urine treated soils to simulate the treatment of urine patches. Nitrous oxide gas measurements followed these treatments—as is detailed further below.
For the soil columns that were set up for taking soil samples for analysis of mineral nitrogen, the different treatments were mixed with the soil for soil sampling. Soil moisture was adjusted to 100% field capacity (FC) and maintained between 80 and 100% FC over the duration of the experiment.
Nitrous oxide (N2O) gas sampling was conducted twice a week using the standard procedure (Di et al., 2007). Vials were evacuated prior to sampling. Three gas samples were taken with 20 minute intervals between each sampling. Sampling frequency was reduced to once a week when N2O fluxes decreased in intensity.
Soil sampling was conducted on Day 1, 7, 14, 30, and 60. The soil samples were analysed for mineral nitrogen.

## C#Cc1ccc(OC)cc1 [4-Ethynylanisole, 1-ethynyl-4-methoxybenzene]
[1]; 1 or 2 kg/ha vs DCD at 10 kg/ha
  inhibiting nitrate production compared with DCD: much more potent than DCD
[1]; 1 or 2 kg/ha
  soil nitrate-N concentration compared with urine control: significantly lower nitrate-N concentrations
Escherichia coli
  inhibition of bacterial growth: did not inhibit
Mesorhizobium loti R7A
  inhibition of bacterial growth: did not inhibit
Mycobacterium smegmatis
  inhibition of bacterial growth: did not inhibit
Bacillus subtilis
  inhibition of bacterial growth: did not inhibit
Nitrosomonas europaea; 1.56 μM to 400 μM
  rate of nitrite production (OD519 nm): significantly reduced
Nitrosomonas europaea; Nitrosomonas europaea, read-out: IC50 (nitrite production reduced by half)
  IC50: 2400 nM
Nitrosomonas europaea; Nitrosomonas europaea, read-out: Minimum Inhibitory Concentration (MIC) of nitrite production
  MIC: 25 to 50 µM (≈ 3.3 to 6.61 µg/mL)
N. europaea cells; ammonium sulphate 12.5 mM
  ammonium-driven oxygen consumption: reduced to zero
N. europaea cells; hydroxyl amine 6.25 mM
  hydroxylamine (H3NO)-driven oxygen consumption: not affected
[2]; 10 kg/ha sprayed to soil surface, soil column
  N2O—N emissions lower than urine alone control: 93.3%
[2]; 10 kg/ha, day 60
  soil nitrate-N concentration compared with urine control: significantly lower nitrate-N concentrations
[2]; both at 10 kg/ha
  nitrous oxide reduction compared with DCD: much greater than that by DCD
[2]; both at 10 kg/ha, day 60
  inhibiting nitrate production compared with DCD: much more potent than DCD
